# Key:
# [1] = system: A. baumannii ATCC 17978 (SEN) and A. baumannii ATCC BAA-1605 (MDR); assay: Adaptive laboratory evolution (ALE), relative MIC of evolved lines; assay type: cell-based, Acinetobacter baumannii
# How it was run: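 Ten parallel populations per antibiotic–ancestor pair were evolved in MHB at 37 °C, starting near 50% growth-inhibiting drug. Every 72 h they were passaged into 0.5–2.5× increasing concentrations, keeping the highest-drug well with OD600 > 0.2.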
# E. coli ATCC25922 = assay: Dose-response killing curves (99.9% killing concentration, Hill coefficient); assay type: cell-based, Escherichia coli; details: dose-response killing curve
structure (smiles),measurement,setting,value
C[C@@H](O)[C@H]1C(=O)N2C(C(=O)O)=C(S[C@H]3CC[S@@+]([O-])C3)S[C@H]12 [Sulopenem],MIC of evolved line,"[1]; AB-SEN (A. baumannii ATCC 17978), evolved line 1 of the given antibiotic",8 µg/mL
same,Relative MIC,"[1]; AB-SEN (A. baumannii ATCC 17978), evolved line 1 vs ancestor",8
same,MIC of evolved line,"[1]; AB-SEN (A. baumannii ATCC 17978), evolved line 2 of the given antibiotic",1 µg/mL
same,Relative MIC,"[1]; AB-SEN (A. baumannii ATCC 17978), evolved line 2 vs ancestor",1
same,MIC of evolved line,"[1]; AB-SEN (A. baumannii ATCC 17978), evolved line 3 of the given antibiotic",16 µg/mL
same,Relative MIC,"[1]; AB-SEN (A. baumannii ATCC 17978), evolved line 3 vs ancestor",16
same,MIC of evolved line,"[1]; AB-SEN (A. baumannii ATCC 17978), evolved line 4 of the given antibiotic",16 µg/mL
same,Relative MIC,"[1]; AB-SEN (A. baumannii ATCC 17978), evolved line 4 vs ancestor",16
same,MIC of evolved line,"[1]; AB-SEN (A. baumannii ATCC 17978), evolved line 5 of the given antibiotic",64 µg/mL
same,Relative MIC,"[1]; AB-SEN (A. baumannii ATCC 17978), evolved line 5 vs ancestor",64
same,MIC of evolved line,"[1]; AB-SEN (A. baumannii ATCC 17978), evolved line 6 of the given antibiotic",16 µg/mL
same,Relative MIC,"[1]; AB-SEN (A. baumannii ATCC 17978), evolved line 6 vs ancestor",16
same,MIC of evolved line,"[1]; AB-SEN (A. baumannii ATCC 17978), evolved line 7 of the given antibiotic",16 µg/mL
same,Relative MIC,"[1]; AB-SEN (A. baumannii ATCC 17978), evolved line 7 vs ancestor",16
same,MIC of evolved line,"[1]; AB-SEN (A. baumannii ATCC 17978), evolved line 8 of the given antibiotic",8 µg/mL
same,Relative MIC,"[1]; AB-SEN (A. baumannii ATCC 17978), evolved line 8 vs ancestor",8
same,MIC of evolved line,"[1]; AB-SEN (A. baumannii ATCC 17978), evolved line 9 of the given antibiotic",16 µg/mL
same,Relative MIC,"[1]; AB-SEN (A. baumannii ATCC 17978), evolved line 9 vs ancestor",16
same,Relative MIC (log10),"[1]; AB-SEN (Acinetobacter baumannii ATCC 17978), evolved line 1",0.9031 log10
same,Relative MIC (log10),"[1]; AB-SEN (Acinetobacter baumannii ATCC 17978), evolved line 3",1.204 log10
same,Relative MIC (log10),"[1]; AB-SEN (Acinetobacter baumannii ATCC 17978), evolved line 5",1.806 log10
same,Relative MIC (log10),"[1]; AB-SEN (Acinetobacter baumannii ATCC 17978), evolved line 9",1.204 log10
same,Relative MIC (log10),"[1]; AB-SEN, Acinetobacter baumannii ATCC 17978, evolved line 7",1.204 log10
same,Relative MIC,"[1]; Acinetobacter baumannii ATCC 17978 (AB-SEN), evolved line 1",8
same,Relative MIC,"[1]; Acinetobacter baumannii ATCC 17978 (AB-SEN), evolved line 2",1
same,Relative MIC,"[1]; Acinetobacter baumannii ATCC 17978 (AB-SEN), evolved line 3",16
same,Relative MIC,"[1]; Acinetobacter baumannii ATCC 17978 (AB-SEN), evolved line 4",16
same,Relative MIC,"[1]; Acinetobacter baumannii ATCC 17978 (AB-SEN), evolved line 5",64
same,Relative MIC,"[1]; Acinetobacter baumannii ATCC 17978 (AB-SEN), evolved line 6",16
same,Relative MIC,"[1]; Acinetobacter baumannii ATCC 17978 (AB-SEN), evolved line 7",16
same,Relative MIC,"[1]; Acinetobacter baumannii ATCC 17978 (AB-SEN), evolved line 8",8
same,Relative MIC,"[1]; Acinetobacter baumannii ATCC 17978 (AB-SEN), evolved line 9",16
same,Steepness (Hill Coefficient),E. coli ATCC25922,1.03
same,99.9% killing (10^-3),E. coli ATCC25922; unit not given,0.18
